How the values were obtained:
[1] = test system: BAD_0569/BAD_0568-CcaR TCS; conditions: E. coli expressing BAD_0569 and BAD_0568-CcaR, sfGFP from PcpcG2; panel of over 40 gut chemicals
Text: Briefly, the wild type BAD_0569 SK of Bifidobacterium adolescent was expressed in E. coli. A modified cognate response regulator BAD_0568 was simultaneously expressed in E. coli, wherein the native DBD from the Bifidobacterium adolescentis RR was replaced with that of the DBD from the well-characterized OmpR-PhoB family RR CcaR. When phosphorylated, native CcaR activates transcription from PcpcG2, or its derivatives. A superfolder GFP reporter gene (a.k.a. GFP) was expressed from PcpcG2 in the same E. coli. Anydrotetracyline (aTc) induces expression of the BAD_0568-CcaR hybrid, which activates PcpcG2 transcription and thus GFP expression.
We then tested E. coli expressing the hybrid BAD_0569/8 TCS (i.e. BAD_0569 and BAD_0568-CcaR with sfGFP expressed from PcpcG2) in the presence of over 40 chemicals previously found to be enriched in the large intestines of germ-free mice made to carry gut bacteria of obese humans, but not found to be enriched in those mice carrying the gut bacteria of their lean twins.

[2] = test system: NarL / PdcuS promoter; conditions: PdcuS promoter repressed by phosphorylated NarL, sfGFP; cited from earlier work

CSCC[C@H](N)C(=O)O [methionine]
response of rewired BAD_0569/8 TCS (sfGFP reporter) to the chemical [1]: largest response

O=[N+]([O-])O [nitrate]
sensitivity of the sensor [2]: The sensitivity of the sensor is in the sub-mM to mM range for nitrate.

Source: US10793840B2, “Identifying ligands for bacterial sensors” (William Marsh Rice University, priority 2015, dated 2020)
